Test results reported in patent US20040077674A1, “Mappicine analogs, intermediates in the synthesis of mappicine analogs and methods of synthesis of mappicine analogs” (priority 2002, published 2004).

How the values were obtained:
[1] = target: T1, RNA-dependent DNA polymerase activity of HIV reverse transcriptase (Human immunodeficiency virus type 1 group M subtype B, UniProt P03366); test: RNA-dependent DNA polymerase activity assay of HIV reverse transcriptase; assay type: biochemical, HIV-1; conditions: 10 μM inhibitor concentration, activity in presence / in absence of analog x 100
T1 construct: made in house
Description: In separate representative assays, mappicine analogs were tested for their ability to inhibit the RNA-dependent DNA polymerase activity of HIV reverse transcriptase and for their ability to inhibit the RNase H activity of HIV reverse transcriptase. The assay for RNA-dependent DNA polymerase activity is discussed in Borkow, G. et al., “Inhibition of the Ribonuclease H and DNA Polymerase Activities of HIV-1 Reverse Transcriptase by N-(4-tert-Butylbenzoyl)-2-hydroxy-1-naphthaldehyde Hydrazone,” Biochemistry 1997, 36, 3179-3185, a copy of which is attached hereto and the disclosure of which is incorporated herein by reference. Assays were carried out in the absence and in the presence of mappicine analogs (10 μM final concentration). The results are reported as % residual activity, which is the RNA-dependent DNA polymerase activity of the enzyme in the presence of the mappicine analog divided by the RNA-dependent activity of the enzyme in the absence of the mappicine analog, multiplied by 100.

[2] = target: T2, RNase H activity of HIV reverse transcriptase (Human immunodeficiency virus type 1 group M subtype B, UniProt P03366); test: Fluorescence (FRET)-based RNase H assay of HIV reverse transcriptase; assay type: biochemical, HIV-1; conditions: for inhibition at 20 µM / % inhibition of RNase H at 20 μM: 20 μM inhibitor concentration
T2 construct: 2.5 nM of the p51/p66 RT heterodimer in the assay; made in house
Description: Recently, a fluorescence-based assay to perform screens in search of HIV RNase H inhibitors has been developed. The assay, which is carried out in 96-well microplates and is adaptable to robotics, is the first high-throughput screen for RNase H and is described in further detail in the Experimental section. HIV-1 RT and human RNase H were cloned, and thus comparative analysis of inhibitor action could be conducted simultaneously.
The assay for RNase H activity of HIV reverse transcriptase was the fluorescence-based assay described in detail in the Experimental section and discussed in U.S. Provisional Patent Application Serial No. 60/318,359. Assays were carried out in the absence and in the presence of mappicine analogs (10 μM or 20 μM final concentration). The results are reported as % residual activity, which is the RNase H activity of the enzyme in the presence of the mappicine analog divided by the RNase H activity of the enzyme in the absence of the mappicine analog, multiplied by 100. Alternatively, the results are reported as % inhibition, which is calculated as the ratio of the RNase H activity of the enzyme in the presence of the mappicine analog to the enzyme activity in the absence of the mappicine analog, multiplied by 100, and then subtracting this number from 100.
Assay for Ribonuclease H Activity Based on Fluorescence Resonance Energy Transfer (FRET)
Preparation of the Fluorophore-RNA/Quencher-DNA Hybrid Duplex Substrate.
The RNA/DNA hybrid duplex substrate for use in the assay comprises an RNA oligonucleotide of sequence 5′-GAU CUG AGC CUG GGA GCU-3′, modified at the 3′-end with Aminolink-2 and derivatized with fluorescein isothiocyanate, to provide a modified RNA oligonucleotide of the sequence 5′-GAU CUG AGC CUG GGA GCU-fluorescein-3′, annealed to a complementary DNA oligonucleotide of the sequence 5′-AGC TCC CAG GCT CAG ATC-3′ modified at the 5′-end with Aminolink-2 and derivatized with the FRET acceptor DABCYL succinimidyl ester, to provide a modified DNA oligonucleotide of the sequence 5′-DABCYL-AGC TCC CAG GCT CAG ATC-3′.
To prepare the 3′-fluorescein-RNA/5′-DABCYL-DNA hybrid duplex substrate, a known amount of 3′-fluorescein-RNA was dissolved in 20 mM Tris buffer (pH 8.0, 37° C.) to provide a final concentration of 5 μM. Two equivalents of the 5′-DABCYL-DNA oligonucleotide were added, and the mixture was heated to 90° C. for 5 min and cooled slowly to room temperature to allow duplex formation. The positioning of the fluorescein donor at the 3′-end of the RNA oligonucleotide and the DABCYL acceptor at the 5′-end of the DNA oligonucleotide provides a very close proximity of the donor and acceptor that results in a very intense quenching of the fluorescein emission in the intact RNA/DNA hybrid duplex substrate due to the spectral overlap of the fluorescence emission of fluorescein with the absorption spectrum of DABCYL. In addition, DABCYL is non-fluorescent, and thus cannot contribute any light emission. Both of these factors result in a very low background and provide a high signal-to-noise in the assay measurements. The ratio of the donor fluorescence in the absence and in the presence of its quencher is approximately fifteen-fold.
Microplate Assay Protocol for the Measurement of RNase H Activity Using the RNA/IDNA Hybrid Duplex Substrate.
Reaction assay mixtures contained 5 μl of a stock solution of 2.5 μM RNA/DNA hybrid duplex substrate added to 85 μl of assay buffer (50 mM Tris, pH 8.0, 37° C., containing 60 mM KCl and 2.5 mM MgCl2), prepared in the wells of a 96-well fluorescence microtiter plate, and warmed to 37° C. using the temperature control of the SpectraMax Gemini XS microplate spectrofluorometer (Molecular Devices). Reactions were started by the addition of 5 μl of a solution of recombinant HIV-1 reverse transcriptase (usually providing a final concentration of 2.5 nM of the p51/p66 RT heterodimer in the assay), and mixing using the automatic mixing function of the microplate spectrofluorometer. […]

[3] = 10 μM inhibitor concentration, activity in presence / in absence of analog x 100

| SMILES | Residual activity (%) Polymerase [1] [%] | Residual activity (%) RNase H [2, 3] [%] | further results |
| --- | --- | --- | --- |
| COc1ccc2nc3c(c([Si](C)(C)C)c2c1)Cn1c-3cc(C(=O)CCC2CCCCC2)c(C)c1=O [5 (5Dδκ)] | 40 | 92 |  |
| Cc1c(C(=O)CCC2CCCCC2)cc2n(c1=O)Cc1c-2nc2ccccc2c1[Si](C)(C)C(C)(C)C [5 (4Aδκ)] | 39 | 102 |  |
| CCC(=O)c1cc2n(c(=O)c1C)Cc1c-2nc2ccc(F)cc2c1[Si](C)(C)C [5 (5Bακ)] | 74 | 89 |  |
| CCC(=O)c1cc2n(c(=O)c1C)Cc1c-2nc2ccc(C)cc2c1[Si](C)(C)C(C)(C)C [5 (4Cακ)] | 52 | 90 |  |
| Cc1c(C(O)Cc2ccccc2)cc2n(c1=O)Cc1c-2nc2ccccc2c1-c1ccccc1 (stereo not shown) [5 (3Aε)] | 34 | 99 |  |
| CCC(=O)c1cc2n(c(=O)c1C)Cc1c-2nc2ccc(C)cc2c1-c1ccccc1 [5 (3Cακ)] | 71 | 99 |  |
| CCC(O)c1cc2n(c(=O)c1C)Cc1c-2nc2ccc(OC)cc2c1-c1ccccc1 (stereo not shown) [5 (3Dα)] | 69 | 78 |  |
| Cc1ccc2nc3c(c([Si](C)(C)C(C)(C)C)c2c1)Cn1c-3cc(C(=O)CCC2CCCCC2)c(C)c1=O [5 (4Cδκ)] | 52 | 96 |  |
| Cc1c(C(O)CCC2CCCCC2)cc2n(c1=O)Cc1c-2nc2ccccc2c1-c1ccccc1 (stereo not shown) [5 (3Aδ)] | 32 | 104 |  |
| CCCCCCc1c2c(nc3ccc(C)cc13)-c1cc(C(=O)CCC3CCCCC3)c(C)c(=O)n1C2 [5 (8Cδκ)] | 79 | 95 |  |
| Cc1ccc2nc3c(c(-c4ccccc4)c2c1)Cn1c-3cc(C(O)C(C)(C)C)c(C)c1=O (stereo not drawn) [5 (30β)] | 70 | 84 |  |
| Cc1ccc2nc3c(c(-c4ccccc4)c2c1)Cn1c-3cc(C(=O)CCC2CCCCC2)c(C)c1=O [5 (3Cδκ)] | 65 | 93 |  |
| Cc1c(C(=O)C(C)(C)C)cc2n(c1=O)Cc1c-2nc2ccccc2c1[Si](C)(C)C(C)(C)C [5 (4Aβκ)] | 79 | 70 |  |
| CCc1c2c(nc3ccccc13)-c1cc(C(O)CC)c(C)c(=O)n1C2 (stereo not shown) [5 (AG 4M)] | 100 | 74 |  |
| CCCCCCc1c2c(nc3ccc(F)cc13)-c1cc(C(=O)CC)c(C)c(=O)n1C2 [5 (8Bακ)] | 64 | 103 |  |
| Cc1c(C(=O)CCC2CCCCC2)cc2n(c1=O)Cc1c-2nc2ccccc2c1[Si](C)(C)C [5 (5Aδκ)] | 90 | 75 |  |

| SMILES | Residual activity (%) Polymerase [1] [%] | Residual activity (%) RNase H [2, 3] [%] | further results |
| --- | --- | --- | --- |
| CCCCCCc1c2c(nc3ccccc13)-c1cc(C(=O)Cc3ccccc3)c(C)c(=O)n1C2 [5 (8Aεκ)] | 59 | 92 |  |
| COc1ccc2nc3c(c([Si](C)(C)C(C)(C)C)c2c1)Cn1c-3cc(C(O)CCC2CCCCC2)c(C)c1=O (stereo not shown) [5 (4Dδ)] | 51 | 87 |  |
| Cc1ccc2nc3c(c([Si](C)(C)C)c2c1)Cn1c-3cc(C(=O)C(C)(C)C)c(C)c1=O [5 (5Cβκ)] | 76 | 92 |  |
| CCc1c2c(nc3ccc(NC(=O)OC(C)(C)C)cc13)-c1cc(C(O)CC)c(C)c(=O)n1C2 (stereo not shown) [5 (AG 5M), 2-tert-Butyloxycarbonylamino-12-ethyl-7-(1-hydroxypropyl)-8-methyl-11H-indolizino[1,2-b]quinolin-9-one] |  |  | remaining activity at 10 µM ([1]; read-out: Residual activity (%) Polymerase): 87%; remaining activity at 10 µM ([2]; 10 μM inhibitor concentration, activity in presence / in absence of analog x 100, read-out: Residual activity (%) RNase H): 68% |
| Cc1c(C(O)C(C)(C)C)cc2n(c1=O)Cc1c-2nc2ccc(F)cc2c1[Si](C)(C)C(C)(C)C (stereo not shown) [5 (4Bβ)] | 49 | 113 |  |
| CCC(O)c1cc2n(c(=O)c1C)Cc1c-2nc2ccc(OC)cc2c1[Si](C)(C)C(C)(C)C (stereo not shown) [5 (4Dα)] | 77 | 79 |  |
| CCC(O)c1cc2n(c(=O)c1C)Cc1c-2nc2ccc(F)cc2c1-c1ccccc1 (stereo not shown) [5 (3Bα)] | 54 | 83 |  |
| Cc1c(C(=O)CCC2CCCCC2)cc2n(c1=O)Cc1c-2nc2ccc(F)cc2c1-c1ccccc1 [5 (3Bδκ)] | 59 | 93 |  |
| CCC(C)C(O)c1cc2n(c(=O)c1C)Cc1c-2nc2ccccc2c1-c1ccccc1 (stereo not shown) [Compound 4.8.1, 7-(1-Hydroxy-2-methylbutyl)-8-methyl-1 2-phenyl-11H-indolizino[1,2-b]quinolin-9-one] |  |  | inhibition at 20 µM [2]: 80% |
| CCC(C)C(O)c1cc2n(c(=O)c1C)Cc1c-2nc2ccc(C)cc2c1-c1ccccc1 (stereo not shown) [Compound 4.8.9] |  |  | % inhibition of RNase H at 20 μM [2]: 55% |
| CCCCCc1c2c(nc3ccc(F)cc13)-c1cc(C(O)C3CCCCC3)c(C)c(=O)n1C2 (stereo not shown) [Compound 6.7.2, 7-(Cyclohexylhydroxymethyl)-2-fluoro-8-methyl-12-pentyl-11H-indolizino[1,2-b]quinolin-9-one] |  |  | inhibition at 20 µM [2]: 76% |
| Cc1ccc2nc3c(c(-c4ccccc4)c2c1)Cn1c-3cc(C(O)C(C)C)c(C)c1=O (stereo not shown) [Compound 5.8.9] |  |  | % inhibition of RNase H at 20 μM [2]: 69% |
| CCCCc1c2c(nc3ccc(C(F)(F)F)cc13)-c1cc(C(O)CC)c(C)c(=O)n1C2 (stereo not shown) [Compound 3.6.4] |  |  | % inhibition of RNase H at 20 μM [2]: 62% |
| CCCCCc1c2c(nc3ccc(F)cc13)-c1cc(C(O)C(C)CC)c(C)c(=O)n1C2 (stereo not shown) [Compound 4.7.2] |  |  | % inhibition of RNase H at 20 μM [2]: 58% |
| CCCCCc1c2c(nc3ccc(OC)cc13)-c1cc(C(O)C(C)CC)c(C)c(=O)n1C2 (stereo not shown) [Compound 4.7.3] |  |  | % inhibition of RNase H at 20 μM [2]: 60% |
